Assay results taken from ChEMBL document CHEMBL5724914, “Linking interpersonal differences in gut microbiota composition and drug biotransformation activity” (2024).

Test: (§1) The drug is tested on Z-028 corresponding to mouse gut metagenome with ENA study accession number: PRJEB37062 and ENA sample accession number: ERS12561827 for biotransformation under anaerobic condition. The drug concentrations were measured over 9 timepoints collected between 0 and 24 hours of incubation by liquid-chromatography-coupled mass spectrometry (LC–MS)
Settings: 2 µM
Note: call rule not given here.

Bacterial Biotransformation	SMILES
Compound NOT metabolized	CCOc1ccc(NC(C)=O)cc1 [PHENACETIN]
Compound metabolized	CC(C(=O)O)c1ccc2c(c1)Cc1cccnc1O2 (stereo not given) [PRANOPROFEN]

Test: as §1, with “Z-027” for “Z-028”, “to” for “to mouse gut”, “ERS12561826” for “ERS12561827”
Settings: 2 µM

Bacterial Biotransformation	SMILES
Compound NOT metabolized	CCOc1ccc(NC(C)=O)cc1 [PHENACETIN]
Compound metabolized	CC(C(=O)O)c1ccc2c(c1)Cc1cccnc1O2 (stereo not given) [PRANOPROFEN]

Test: as §1, with “Z-024” for “Z-028”, “pig” for “mouse”, “ERS12561823” for “ERS12561827”
Settings: 2 µM

Bacterial Biotransformation	SMILES
Compound NOT metabolized	CCOc1ccc(NC(C)=O)cc1 [PHENACETIN]
Compound NOT metabolized	CC(C(=O)O)c1ccc2c(c1)Cc1cccnc1O2 (stereo not given) [PRANOPROFEN]

Test: as §1, with “Z-020” for “Z-028”, “rabbit” for “mouse”, “ERS12561819” for “ERS12561827”
Settings: 2 µM

Bacterial Biotransformation	SMILES
Compound NOT metabolized	CCOc1ccc(NC(C)=O)cc1 [PHENACETIN]
Compound metabolized	CC(C(=O)O)c1ccc2c(c1)Cc1cccnc1O2 (stereo not given) [PRANOPROFEN]

Test: as §1, with “Z-013” for “Z-028”, “rabbit” for “mouse”, “ERS12561813” for “ERS12561827”
Settings: 2 µM

Bacterial Biotransformation	SMILES
Compound NOT metabolized	CCOc1ccc(NC(C)=O)cc1 [PHENACETIN]
Compound metabolized	CC(C(=O)O)c1ccc2c(c1)Cc1cccnc1O2 (stereo not given) [PRANOPROFEN]

Test: as §1, with “Z-009” for “Z-028”, “pig” for “mouse”, “ERS12561809” for “ERS12561827”
Settings: 2 µM

Bacterial Biotransformation	SMILES
Compound NOT metabolized	CCOc1ccc(NC(C)=O)cc1 [PHENACETIN]
Compound metabolized	CC(C(=O)O)c1ccc2c(c1)Cc1cccnc1O2 (stereo not given) [PRANOPROFEN]

Test: as §1, with “Z-007” for “Z-028”, “rat” for “mouse”, “ERS12561807” for “ERS12561827”
Settings: 2 µM

Bacterial Biotransformation	SMILES
Compound NOT metabolized	CCOc1ccc(NC(C)=O)cc1 [PHENACETIN]
Compound NOT metabolized	CC(C(=O)O)c1ccc2c(c1)Cc1cccnc1O2 (stereo not given) [PRANOPROFEN]

Test: as §1, with “Z-001” for “Z-028”, “ERS12561801” for “ERS12561827”
Settings: 2 µM

Bacterial Biotransformation	SMILES
Compound NOT metabolized	CCOc1ccc(NC(C)=O)cc1 [PHENACETIN]
Compound metabolized	CC(C(=O)O)c1ccc2c(c1)Cc1cccnc1O2 (stereo not given) [PRANOPROFEN]

Test: as §1, with “WLS-082” for “Z-028”, “human” for “mouse”, “ERS12561751” for “ERS12561827”
Settings: 2 µM

Bacterial Biotransformation	SMILES
Compound NOT metabolized	CCOc1ccc(NC(C)=O)cc1 [PHENACETIN]
Compound metabolized	CC(C(=O)O)c1ccc2c(c1)Cc1cccnc1O2 (stereo not given) [PRANOPROFEN]

Test: as §1, with “WLS-006” for “Z-028”, “human” for “mouse”, “ERS12561741” for “ERS12561827”
Settings: 2 µM

Bacterial Biotransformation	SMILES
Compound NOT metabolized	CCOc1ccc(NC(C)=O)cc1 [PHENACETIN]
Compound metabolized	CC(C(=O)O)c1ccc2c(c1)Cc1cccnc1O2 (stereo not given) [PRANOPROFEN]

Settings: human gut metagenome, 24 h, 2 µM

Bacterial Biotransformation	SMILES
Compound NOT metabolized	CCOc1ccc(NC(C)=O)cc1 [PHENACETIN]
Compound metabolized	CC(C(=O)O)c1ccc2c(c1)Cc1cccnc1O2 (stereo not given) [PRANOPROFEN]

Settings: human gut metagenome, 24 h, 2 µM
Remark: another data set of the same source

Bacterial Biotransformation	SMILES
Compound NOT metabolized	CCOc1ccc(NC(C)=O)cc1 [PHENACETIN]
Compound metabolized	CC(C(=O)O)c1ccc2c(c1)Cc1cccnc1O2 (stereo not given) [PRANOPROFEN]

Settings: human gut metagenome, 24 h, 2 µM
Remark: another data set of the same source

Bacterial Biotransformation	SMILES
Compound NOT metabolized	CCOc1ccc(NC(C)=O)cc1 [PHENACETIN]
Compound metabolized	CC(C(=O)O)c1ccc2c(c1)Cc1cccnc1O2 (stereo not given) [PRANOPROFEN]

Settings: human gut metagenome, 24 h, 2 µM
Remark: another data set of the same source

Bacterial Biotransformation	SMILES
Compound NOT metabolized	CCOc1ccc(NC(C)=O)cc1 [PHENACETIN]
Compound metabolized	CC(C(=O)O)c1ccc2c(c1)Cc1cccnc1O2 (stereo not given) [PRANOPROFEN]

Settings: human gut metagenome, 24 h, 2 µM
Remark: another data set of the same source

Bacterial Biotransformation	SMILES
Compound NOT metabolized	CCOc1ccc(NC(C)=O)cc1 [PHENACETIN]
Compound metabolized	CC(C(=O)O)c1ccc2c(c1)Cc1cccnc1O2 (stereo not given) [PRANOPROFEN]

Settings: human gut metagenome, 24 h, 2 µM
Remark: another data set of the same source

Bacterial Biotransformation	SMILES
Compound NOT metabolized	CCOc1ccc(NC(C)=O)cc1 [PHENACETIN]
Compound metabolized	CC(C(=O)O)c1ccc2c(c1)Cc1cccnc1O2 (stereo not given) [PRANOPROFEN]

Settings: human gut metagenome, 24 h, 2 µM
Remark: another data set of the same source

Bacterial Biotransformation	SMILES
Compound NOT metabolized	CCOc1ccc(NC(C)=O)cc1 [PHENACETIN]
Compound metabolized	CC(C(=O)O)c1ccc2c(c1)Cc1cccnc1O2 (stereo not given) [PRANOPROFEN]

Settings: human gut metagenome, 24 h, 2 µM
Remark: another data set of the same source

Bacterial Biotransformation	SMILES
Compound NOT metabolized	CCOc1ccc(NC(C)=O)cc1 [PHENACETIN]
Compound metabolized	CC(C(=O)O)c1ccc2c(c1)Cc1cccnc1O2 (stereo not given) [PRANOPROFEN]

Settings: human gut metagenome, 24 h, 2 µM
Remark: another data set of the same source

Bacterial Biotransformation	SMILES
Compound NOT metabolized	CCOc1ccc(NC(C)=O)cc1 [PHENACETIN]
Compound metabolized	CC(C(=O)O)c1ccc2c(c1)Cc1cccnc1O2 (stereo not given) [PRANOPROFEN]

Settings: human gut metagenome, 24 h, 2 µM
Remark: another data set of the same source

Bacterial Biotransformation	SMILES
Compound NOT metabolized	CCOc1ccc(NC(C)=O)cc1 [PHENACETIN]
Compound metabolized	CC(C(=O)O)c1ccc2c(c1)Cc1cccnc1O2 (stereo not given) [PRANOPROFEN]
